Earlier results in patent publication US20180185375A1, “COMPOSITIONS AND METHODS FOR THE TREATMENT OF SUBSTANCE USE DISORDERS, ADDICTION, AND PSYCHIATRIC DISORDERS” (EMBERA NEUROTHERAPEUTICS, INC., priority 2015, published 2018).

Key:
[1] = system: adrenal gland; conditions: in vivo
[2] = system: cocaine self-administration in rats
[3] = system: cortisol levels; conditions: healthy subjects
[4] = 12.5 mg/kg metyrapone tested alone, rats

## Clc1ccc(C(c2ccccc2Cl)C(Cl)Cl)cc1 (stereo not drawn) [Mitotane]
[1]
  doses at which it is an adrenolytic agent: greater than 4 g per day

## Cc1nnc2n1-c1ccc(Cl)cc1C(c1ccccc1)=NC2 [alprazolam]
[2]; alprazolam 1.0 mg/kg, ip, alone
  effect of the dose alone on cocaine self-administration: ineffective

## CCOC(=O)c1cncn1[C@H](C)c1ccccc1 [etomidate]
[3]
  time after which infusion resulted in significant suppression of cortisol levels: 5 h
[3]; infusion
  time of maximal effects on cortisol levels: 11 h

## CC(C)(C(=O)c1cccnc1)c1cccnc1 [metyrapone]
[2]; [4]
  effect on cocaine-maintained responding: no effect
  effect on food-maintained responding: no effect
